Assay results from publication PMC7179119, “A New Positron Emission Tomography Probe for Orexin Receptors Neuroimaging” (Molecules, 2020).
Read-outs that look alike come from different tables or passages of the source.

Columns and labels:
Test in all cases: PDSP off-target radioligand binding assay
M1 = target: T1, M1 (Homo sapiens, UniProt P11229)
T1 sequence (P11229 1-460): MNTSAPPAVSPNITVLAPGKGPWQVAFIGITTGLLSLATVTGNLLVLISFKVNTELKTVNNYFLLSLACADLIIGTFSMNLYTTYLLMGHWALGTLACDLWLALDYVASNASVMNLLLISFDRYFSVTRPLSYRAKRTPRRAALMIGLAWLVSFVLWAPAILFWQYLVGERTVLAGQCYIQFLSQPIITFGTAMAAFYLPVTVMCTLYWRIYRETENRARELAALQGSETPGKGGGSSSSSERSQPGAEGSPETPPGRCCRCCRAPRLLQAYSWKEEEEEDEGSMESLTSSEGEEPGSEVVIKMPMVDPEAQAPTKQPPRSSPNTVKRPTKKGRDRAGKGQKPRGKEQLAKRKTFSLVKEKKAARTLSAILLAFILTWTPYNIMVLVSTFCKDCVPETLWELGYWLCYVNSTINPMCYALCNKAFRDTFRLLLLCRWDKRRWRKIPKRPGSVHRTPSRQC
Method: (§1) Table S1. Off binding data of CW24.
(§2) The off-target binding assays were performed at PDSP with their standard protocol (https://pdspdb.unc.edu/pdspWeb/content/UNC-CH%20Protocol%20Book.pdf). In radioligand binding assays, CW24 was tested at a single concentration (10 µM) and in quadruplicate in 96-well plates. The binding assays were carried out in a final of volume of 125 µl per well in appropriate binding buffers. The hot ligand concentration is usually at a concentration close to the Kd (unless otherwise indicated). Total binding and nonspecific binding are determined in the absence and presence of 10 µM of the appropriate reference compound, respectively. In brief, plates are usually incubated at room temperature and in the dark for 90 mins. Reactions are stopped by vacuum filtration onto 0.3% polyethyleneimine (PEI) soaked 96-well filter mats using a 96-well Filtermate harvester, followed by three washes with cold wash buffers (for details, see Tables 2 to 24). Scintillation cocktail is then melted onto the microwave-dried filters on a hot plate and radioactivity is counted in a Microbeta counter.
(§3) Receptor % Inhibition 1 % Inhibition 2 % Inhibition 3 % Inhibition 4 Mean±SD %

Sigma 2 = settings: 10 µM
Method: as §1, §2, §3

H4 = H4 (Homo sapiens, UniProt Q9H3N8)
Chain of H4 (Q9H3N8 whole entry): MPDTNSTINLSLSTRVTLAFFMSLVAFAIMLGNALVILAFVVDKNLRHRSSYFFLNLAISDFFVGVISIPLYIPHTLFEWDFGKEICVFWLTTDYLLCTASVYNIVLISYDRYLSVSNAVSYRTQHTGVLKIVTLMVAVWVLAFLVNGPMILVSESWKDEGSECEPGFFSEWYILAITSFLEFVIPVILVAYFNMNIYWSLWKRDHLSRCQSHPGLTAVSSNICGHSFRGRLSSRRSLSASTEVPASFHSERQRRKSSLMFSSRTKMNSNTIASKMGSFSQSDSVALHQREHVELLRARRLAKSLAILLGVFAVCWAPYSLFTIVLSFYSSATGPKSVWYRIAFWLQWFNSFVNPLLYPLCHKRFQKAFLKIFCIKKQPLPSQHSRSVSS
Method: as §1, §2, §3

Sigma 1 = settings: 10 µM
Method: as §1, §2, §3

M3 = M3 (Homo sapiens, UniProt P20309)
Chain of M3 (P20309 whole entry): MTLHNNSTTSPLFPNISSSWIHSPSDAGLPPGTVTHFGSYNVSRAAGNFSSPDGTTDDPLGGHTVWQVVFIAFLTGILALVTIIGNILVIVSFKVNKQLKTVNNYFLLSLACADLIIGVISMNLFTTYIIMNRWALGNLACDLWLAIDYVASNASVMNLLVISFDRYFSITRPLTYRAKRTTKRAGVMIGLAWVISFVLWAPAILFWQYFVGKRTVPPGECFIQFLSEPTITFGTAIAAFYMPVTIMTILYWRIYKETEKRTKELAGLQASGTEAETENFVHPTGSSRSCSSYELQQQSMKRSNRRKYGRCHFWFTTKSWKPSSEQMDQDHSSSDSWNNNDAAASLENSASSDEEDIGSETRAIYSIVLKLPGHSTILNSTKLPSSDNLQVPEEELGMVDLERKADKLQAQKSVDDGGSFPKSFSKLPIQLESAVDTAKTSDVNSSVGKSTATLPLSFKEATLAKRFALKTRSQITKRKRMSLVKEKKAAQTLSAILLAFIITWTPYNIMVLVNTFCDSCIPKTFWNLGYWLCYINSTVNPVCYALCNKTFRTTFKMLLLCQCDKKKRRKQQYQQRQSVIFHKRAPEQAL
Method: as §1, §2, §3

GABAA = settings: 10 µM
Method: as §1, §2, §3

M5 = target: T2, M5 (Homo sapiens, UniProt P08912)
T2 sequence (P08912 1-532): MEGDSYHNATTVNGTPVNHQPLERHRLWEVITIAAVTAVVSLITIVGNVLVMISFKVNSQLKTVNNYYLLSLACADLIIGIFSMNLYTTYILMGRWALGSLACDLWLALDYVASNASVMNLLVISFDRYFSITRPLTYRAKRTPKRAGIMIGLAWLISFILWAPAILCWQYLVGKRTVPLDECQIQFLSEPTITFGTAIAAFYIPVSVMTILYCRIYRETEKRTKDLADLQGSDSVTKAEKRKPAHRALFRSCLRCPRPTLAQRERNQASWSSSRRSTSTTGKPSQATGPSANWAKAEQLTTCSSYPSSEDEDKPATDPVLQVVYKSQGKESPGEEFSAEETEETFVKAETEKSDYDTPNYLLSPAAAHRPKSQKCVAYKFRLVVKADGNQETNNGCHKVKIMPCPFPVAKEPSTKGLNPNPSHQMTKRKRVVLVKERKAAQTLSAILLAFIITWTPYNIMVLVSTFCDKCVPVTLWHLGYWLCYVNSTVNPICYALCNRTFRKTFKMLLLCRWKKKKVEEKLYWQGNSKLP
Method: as §1, §2, §3

D5 = D5 (Homo sapiens, UniProt P21918)
Chain of D5 (P21918 whole entry): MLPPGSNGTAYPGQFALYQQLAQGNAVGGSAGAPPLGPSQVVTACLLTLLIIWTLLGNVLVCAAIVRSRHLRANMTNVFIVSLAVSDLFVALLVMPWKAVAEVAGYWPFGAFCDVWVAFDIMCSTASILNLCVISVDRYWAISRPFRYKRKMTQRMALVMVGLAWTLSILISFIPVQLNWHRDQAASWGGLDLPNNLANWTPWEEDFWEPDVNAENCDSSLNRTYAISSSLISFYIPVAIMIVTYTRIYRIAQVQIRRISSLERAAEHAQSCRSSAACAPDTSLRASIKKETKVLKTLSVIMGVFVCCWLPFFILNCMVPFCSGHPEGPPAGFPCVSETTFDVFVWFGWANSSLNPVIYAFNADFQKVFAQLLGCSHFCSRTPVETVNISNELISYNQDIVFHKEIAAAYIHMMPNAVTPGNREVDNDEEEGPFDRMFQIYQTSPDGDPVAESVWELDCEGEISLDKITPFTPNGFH
Method: as §1, §2, §3

D4 = target: T3, D4 (Homo sapiens, UniProt P21917)
T3 construct: NIMH PDSP
T3 sequence (P21917 1-419): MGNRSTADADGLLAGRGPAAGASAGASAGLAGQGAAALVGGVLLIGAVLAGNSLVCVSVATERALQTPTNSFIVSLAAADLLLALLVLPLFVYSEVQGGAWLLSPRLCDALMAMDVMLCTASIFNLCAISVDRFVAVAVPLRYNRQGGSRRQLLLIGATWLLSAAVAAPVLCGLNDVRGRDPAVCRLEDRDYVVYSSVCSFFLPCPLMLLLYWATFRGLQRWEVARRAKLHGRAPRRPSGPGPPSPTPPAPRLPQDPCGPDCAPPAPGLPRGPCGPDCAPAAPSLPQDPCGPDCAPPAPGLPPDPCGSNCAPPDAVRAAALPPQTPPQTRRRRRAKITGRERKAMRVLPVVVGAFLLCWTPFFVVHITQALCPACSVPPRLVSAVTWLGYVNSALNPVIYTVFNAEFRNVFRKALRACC
Method: as §1, §2, §3

D1 = target: T4, D1 (Homo sapiens, UniProt P21728)
T4 construct: NIMH PDSP
T4 sequence (P21728 whole entry): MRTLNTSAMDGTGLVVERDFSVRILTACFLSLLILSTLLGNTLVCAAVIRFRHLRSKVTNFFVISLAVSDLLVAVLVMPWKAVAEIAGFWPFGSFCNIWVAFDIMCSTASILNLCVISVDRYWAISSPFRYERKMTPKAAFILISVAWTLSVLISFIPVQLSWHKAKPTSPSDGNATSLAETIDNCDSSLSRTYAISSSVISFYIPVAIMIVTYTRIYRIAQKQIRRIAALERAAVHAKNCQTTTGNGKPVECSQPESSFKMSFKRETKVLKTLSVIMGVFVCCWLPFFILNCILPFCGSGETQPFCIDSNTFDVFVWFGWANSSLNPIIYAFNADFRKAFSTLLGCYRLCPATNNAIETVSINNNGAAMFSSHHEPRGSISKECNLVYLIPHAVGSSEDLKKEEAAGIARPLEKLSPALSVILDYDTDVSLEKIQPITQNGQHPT
Method: as §1, §2, §3

[1] = quadruplicate, read-out: Mean±SD % inhibition
[2] = replicate 1, read-out: % Inhibition 1
[3] = replicate 2, read-out: % Inhibition 2
[4] = replicate 3, read-out: % Inhibition 3
[5] = replicate 4, read-out: % Inhibition 4

`COc1ccnc(N2CCC3(CCCN(Cc4cn(C)c5ccccc45)C3=O)CC2)n1` [CW24] showed an inhibition at 10 µM (M1; [1]) of 0.29 ± 11.9%, an inhibition at 10 µM (M1; [2]) of 17.4% and an inhibition at 10 µM (M1; [3]) of -8.79%. The inhibition at 10 µM (M1; [4]) was -6.38%, the inhibition at 10 µM (M1; [5]) was -1.13% and the “Mean±SD % inhibition” value (Sigma 2; quadruplicate) was 27.22 ±10.59%. The “% Inhibition 1” value (Sigma 2; replicate 1) was 42.39%, the “% Inhibition 2” value (Sigma 2; replicate 2) was 19.45% and the “% Inhibition 3” value (Sigma 2; replicate 3) was 26.56%. The “% Inhibition 4” value (Sigma 2; replicate 4) was 20.46%, the inhibition at 10 µM (H4; [1]) was 3.44 ± 8.21% and the inhibition at 10 µM (H4; [2]) was -8.25%. It also gave an inhibition at 10 µM (H4; [3]) of 9.91%, an inhibition at 10 µM (H4; [4]) of 8.32% and an inhibition at 10 µM (H4; [5]) of 3.76%. For the same molecule, the “Mean±SD % inhibition” value (Sigma 1; quadruplicate) was 12.33 ± 12.50%, the “% Inhibition 1” value (Sigma 1; replicate 1) was 8.39% and the “% Inhibition 2” value (Sigma 1; replicate 2) was 1.56%. The “% Inhibition 3” value (Sigma 1; replicate 3) was 8.99%, the “% Inhibition 4” value (Sigma 1; replicate 4) was 30.38% and the inhibition at 10 µM (M3; [1]) was -9.56 ± 5.94%. The inhibition at 10 µM (M3; [2]) was -5.69%, the inhibition at 10 µM (M3; [3]) was -3.65% and the inhibition at 10 µM (M3; [4]) was -12.4%. For the same molecule, the inhibition at 10 µM (M3; [5]) was -16.5%, the “Mean±SD % inhibition” value (GABAA; quadruplicate) was 11.56 ± 11.5% and the “% Inhibition 1” value (GABAA; replicate 1) was 24.87%. The “% Inhibition 2” value (GABAA; replicate 2) was 0.04%, the “% Inhibition 3” value (GABAA; replicate 3) was 4% and the “% Inhibition 4” value (GABAA; replicate 4) was 17.31%. The inhibition at 10 µM (M5; [1]) was 27.4 ± 11.1%, the inhibition at 10 µM (M5; [2]) was 15.3% and the inhibition at 10 µM (M5; [3]) was 31.9%. For the same molecule, the inhibition at 10 µM (M5; [4]) was 40.5%, the inhibition at 10 µM (M5; [5]) was 21.6% and the inhibition at 10 µM (D5; [1]) was 15.5 ± 27.3%. For the same molecule, the inhibition at 10 µM (D5; [2]) was 4.57%, the inhibition at 10 µM (D5; [3]) was -5.32% and the inhibition at 10 µM (D5; [4]) was 7.05%. The inhibition at 10 µM (D5; [5]) was 55.8%, the inhibition at 10 µM (D4; [1]) was 67.2 ± 5.6% and the inhibition at 10 µM (D4; [2]) was 73.2%. The inhibition at 10 µM (D4; [3]) was 70%, the inhibition at 10 µM (D4; [4]) was 60.3% and the inhibition at 10 µM (D4; [5]) was 65.3%. It also gave an inhibition at 10 µM (D1; [1]) of 17.9 ± 12.8%, an inhibition at 10 µM (D1; [2]) of 22.7% and an inhibition at 10 µM (D1; [3]) of -0.84%. It also gave an inhibition at 10 µM (D1; [4]) of 21.9% and an inhibition at 10 µM (D1; [5]) of 28%.
